Measured values as given in publication PMC9238401, “Peptide Conjugates Derived from flg15, Pep13, and PIP1 That Are Active against Plant-Pathogenic Bacteria and Trigger Plant Defense Responses” (Applied and Environmental Microbiology, 2022).
Non-standard residues stand in square brackets, D forms with d. Residues, ends and D or L forms follow the SMILES beside them. No end group written: not given here.

Legend:
[1] = tested on: plant-pathogenic bacteria (E. amylovora, X. arboricola pv. pruni, X. fragariae, X. axonopodis pv. vesicatoria, P. syringae pv. actinidiae, P. syringae pv. …); details: 24 h
[2] = tested on: Xanthomonas axonopodis pv. vesicatoria 2133-2; details: TSB, 25°C, 48 h, OD 600 nm (Bioscreen C), three replicates, experiment repeated twice; MIC given as range
Method in brief: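 Bacteria grown 24 h (48 h for Xanthomonas axonopodis, X. fragariae) at 25°C, suspended at 10^8 CFU mL^−1, mixed with peptide dilutions in TSB.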

[3] = HPLC retention time as indicator of relative hydrophobicity; format: physicochemical; details: chromatographic, Kromasil 100 C18 (4.6 mm × 40 mm, 3 μm), linear gradient 2 to 100% B over 12 min, 1 mL/min; A 0.1% aqueous TFA, B 0.1% TFA in CH3CN; used as indicator of relative hydrophobicity
Description: The parameters related to the structure of the peptide conjugates (sequence, charge, hydrophobic ratio [HR], and HPLC retention time), as well as their physicochemical properties (grand average hydropathicity [GRAVY] and hydrophobic moment [<μH>]) obtained from the online programs ProtParam (Expasy server) and HeliQuest are included in Table 1.
Peptides were analyzed under standard analytical HPLC conditions. Method A: peptides were analyzed with a Dionex liquid chromatography instrument composed of a UV/Vis Dionex UVD170U detector, a P680 Dionex pump, an ASI-100 Dionex automatic injector, and Chromeleon 6.60 software. Detection was performed at a wavelength of 220 nm. Solvent A was 0.1% aqueous trifluoroacetic acid (TFA), and solvent B was 0.1% TFA in CH3CN. Analyses were carried out with a Kromasil 100 C18 (4.6 mm × 40 mm, 3 μm) column with a linear gradient of 2 to 100% B over 7 min at a flow rate of 1 mL/min. Method B: peptides were analyzed with a 1260 Infinity II liquid chromatography instrument (Agilent Technologies) composed of a diode array detector HS, a quaternary pump VL, a 1260 vial sampler, and OpenLab CDS ChemStation software. Analyses were carried out with a Kromasil 100 C18 (4.6 mm × 40 mm, 3 μm) column with a linear gradient of 2 to 100% B over 12 min at a flow rate of 1 mL/min.

[4] = tested on: Xanthomonas fragariae Xf349-9A; test: In vitro growth inhibition (MIC); format: cell-based; details: TSB, 25°C, 48 h, OD 600 nm (Bioscreen C), three replicates, experiment repeated twice; MIC given as range
Method in brief: (§1)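 Strains were grown 24 h at 25°C on agar, then suspended in sterile water at 10^8 CFU mL^−1 and mixed with peptide dilutions in Trypticase soy broth. Plates were incubated at 25°C with shaking and OD600 read hourly for 48 h. MIC is the lowest concentration with no growth at 48 h.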

[5] = tested on: Erwinia amylovora PMV6076; test: In vitro growth inhibition (MIC); format: cell-based; details: TSB, 25°C, 48 h, OD 600 nm (Bioscreen C), three replicates, experiment repeated twice; MIC = lowest concentration with no growth, given as range
Method in brief: as §1

[6] = tested on: Pseudomonas syringae pv. actinidiae Psa3700.1.1; test: In vitro growth inhibition (MIC); format: cell-based; details: TSB, 25°C, 48 h, OD 600 nm (Bioscreen C), three replicates, experiment repeated twice; MIC given as range
Method in brief: as §1

[7] = tested on: Pseudomonas syringae pv. syringae EPS94; test: In vitro growth inhibition (MIC); format: cell-based; details: TSB, 25°C, 48 h, OD 600 nm (Bioscreen C), three replicates, experiment repeated twice; MIC given as range
Method in brief: as §1

[8] = tested on: Xanthomonas arboricola pv. pruni CFBP5563; test: In vitro growth inhibition (MIC); format: cell-based; details: TSB, 25°C, 48 h, OD 600 nm (Bioscreen C), three replicates, experiment repeated twice; MIC given as range
Method in brief: as §1

horse erythrocytes = details: TRIS buffer pH 7.2, 1 h, 37°C, absorbance 540 nm, relative to melittin 100 μM, ± confidence interval (α = 0.05)
Method in brief: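 Hemolysis measured as absorbance at 540 nm of supernatant, expressed as percent of melittin-lysed control after buffer subtraction. Compound solutions (750, 500, 300, 100 μM, Tris-buffered saline pH 7.2) were combined 1:1 with washed horse red cells for 1 h, 37°C, shaking.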

tobacco leaves = test: Effect of peptide infiltration on tobacco leaves (phytotoxicity); format: in vivo; details: in vivo
Method in brief: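 Phytotoxicity was scored as necrotic lesion diameter 48 h post-infiltration. Each peptide was infiltrated at 50, 150 or 250 μM into fully expanded tobacco leaf mesophyll, on ≥3 leaves from different plants, alongside water and same-molar melittin controls.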

Molecule | MIC against all the bacteria tested (span over the six pathogens) [1] [µM] | MIC, Xav [2] [µM] | tR (min), HPLC retention time (method B) [3] [min] | MIC, Xf [4] [µM] | MIC, Ea [5] [µM] | MIC, Psa [6] [µM] | MIC, Pss [7] [µM] | MIC, Xap [8] [µM] | Percent hemolysis at 50 μM (horse erythrocytes) [%] | Percent hemolysis at 150 μM (horse erythrocytes) [%] | Percent hemolysis at 250 μM (horse erythrocytes) [%] | Percent hemolysis at 375 μM (horse erythrocytes) [%] | Size of the lesions in infiltrated tobacco leaves at 50 μM (tobacco leaves) [cm] | Size of the lesions in infiltrated tobacco leaves at 150 μM (tobacco leaves) [cm] | Size of the lesions in infiltrated tobacco leaves at 250 μM (tobacco leaves) [cm] | MIC against four pathogens [1] [µM]
VWNQPVRGFKVYEKKLFKKILKKL-NH2 [Pep13-BP16] | 0.8 to 12.5 | 0.8 to 1.6 | 5.70 | 3.1 to 6.2 | 6.2 to 12.5 | 1.6 to 3.1 | 6.2 to 12.5 | 0.8 to 1.6 | 2 ± 0.6 | 3 ± 0.2 | 4 ± 0.3 | 4 ± 0.2 | 0.23 ± 0.07 | 0.52 ± 0.14 | 0.93 ± 0.19 | –
KKLFKKILKYLVWNQPVRGFKVYE [BP100-Pep13] | – | 1.6 to 3.1 | 5.53 | 3.1 to 6.2 | 0.8 to 1.6 | 0.8 to 1.6 | 1.6 to 3.1 | 1.6 to 3.1 | 5 ± 0.3 | 12 ± 1.1 | 20 ± 2.4 | 30 ± 3.2 | 0.04 ± 0.08 | 0.32 ± 0.11 | 0.42 ± 0.10 | 0.8 to 3.1
KKLFKKILKKLVWNQPVRGFKVYE [BP16-Pep13] | 0.8 to 12.5 | 1.6 to 3.1 | 5.12 | 1.6 to 3.1 | 6.2 to 12.5 | 1.6 to 3.1 | 1.6 to 3.1 | 0.8 to 1.6 | 1 ± 0.4 | 1 ± 0.3 | 1 ± 0.5 | 2 ± 0.4 | 0.23 ± 0.13 | 0.45 ± 0.12 | 1.02 ± 0.32 | –
CC[C@H](C)[C@H](NC(=O)[C@H](CCCCN)NC(=O)[C@H](CCCCN)NC(=O)[C@@H](Cc1ccccc1)NC(=O)[C@H](CC(C)C)NC(=O)[C@H](CCCCN)NC(=O)[C@@H](N)CCCCN)C(=O)N[C@@H](CC(C)C)C(=O)N[C@@H](CCCCN)C(=O)N[C@@H](Cc1ccc(O)cc1)C(=O)N[C@@H](CC(C)C)C(=O)N[C@H](C(=O)N[C@@H](Cc1c[nH]c2ccccc12)C(=O)N[C@@H](CC(N)=O)C(=O)N[C@@H](CCC(N)=O)C(=O)N1CCC[C@H]1C(=O)N[C@H](C(=O)N[C@@H](CCCNC(=N)N)C(=O)NCC(=O)N[C@@H](Cc1ccccc1)C(=O)N[C@@H](CCCCN)C(=O)N[C@H](C(=O)N[C@@H](Cc1ccc(O)cc1)C(=O)N[C@@H](CCC(=O)O)C(=O)O)C(C)C)C(C)C)C(C)C [BP143-Pep13] (H-KKL[dF]KKILKYLVWNQPVRGFKVYE-OH) | 0.8 to 12.5 | 1.6 to 3.1 | 5.62 | 6.2 to 12.5 | 1.6 to 3.1 | 0.8 to 1.6 | 1.6 to 3.1 | 1.6 to 3.1 | 5 ± 1.9 | 9 ± 0.4 | 16 ± 1.9 | 29 ± 0.9 | 0.10 ± 0.12 | 0.44 ± 0.16 | 0.60 ± 0.25 | –
CC[C@H](C)[C@H](NC(=O)[C@H](CCCCN)NC(=O)[C@H](CCCCN)NC(=O)[C@@H](Cc1ccccc1)NC(=O)[C@H](CC(C)C)NC(=O)[C@H](CCCCN)NC(=O)[C@H](CCCCN)NC(=O)[C@H](CCC(=O)O)NC(=O)[C@H](Cc1ccc(O)cc1)NC(=O)[C@@H](NC(=O)[C@H](CCCCN)NC(=O)[C@H](Cc1ccccc1)NC(=O)CNC(=O)[C@H](CCCNC(=N)N)NC(=O)[C@@H](NC(=O)[C@@H]1CCCN1C(=O)[C@H](CCC(N)=O)NC(=O)[C@H](CC(N)=O)NC(=O)[C@H](Cc1c[nH]c2ccccc12)NC(=O)[C@@H](N)C(C)C)C(C)C)C(C)C)C(=O)N[C@@H](CC(C)C)C(=O)N[C@@H](CCCCN)C(=O)N[C@@H](Cc1ccc(O)cc1)C(=O)N[C@@H](CC(C)C)C(N)=O [Pep13-BP143] (H-VWNQPVRGFKVYEKKL[dF]KKILKYL-NH2) | 0.8 to 12.5 | 0.8 to 1.6 | 5.97 | 3.1 to 6.2 | 6.2 to 12.5 | 3.1 to 6.2 | 6.2 to 12.5 | 0.8 to 1.6 | 5 ± 0.5 | 8 ± 0.3 | 10 ± 0.6 | 17 ± 0.4 | 0.16 ± 0.15 | 0.52 ± 0.14 | 0.62 ± 0.13 | –
H-KKVVFWVKFKYGIHTH-NH2 [KSLW-PIP1] | – | 3.1 to 6.2 | 4.83 | 3.1 to 6.2 | > 50 | > 50 | > 50 | 3.1 to 6.2 | 8 ± 1.3 | 3 ± 2.1 | 3 ± 1.2 | 5 ± 4.9 | 0.17 ± 0.17 | 0.53 ± 0.07 | 0.97 ± 0.28 | –
